From patent US5049559A, “Thieno-triazolo-diazepine derivatives useful as anti-ischemic agents” (priority 1989, dated 1991)

Key:
[1] = system: platelet aggregation induced by PAF; assay: Inhibition of platelet aggregation induced by PAF; format: cell-based; conditions: Oryctolagus cuniculus, male New Zealand rabbits, Table I
Protocol: 1) Inhibition of platelet aggregation induced by PAF
This experimentation was conducted according to the method of R. KINLOUGH. RATHBONE, J. P. CAZENAVE, M. PACKHAM and F. MUSTARD, Lab. Invest. 48, 98, 1980. In this test, New Zealand rabbits were used (male New Zealand rabbits of an average weight of 5 kg).
The determinations are made on a chrono-log Coultronics aggregometer, at […] coupled with a graphic recorder; the results of these determinations (in molecular concentration) are reported on the table I on the central column.

[2] = target: benzodiazepine receptors; assay: Inhibition of the binding to benzodiazepine receptors; conditions: rat brains, 1 hour 30 minutes at 4° C., tracers 3H-RO-15-1788 and 3H-RO-5-4864, Table I, read-out: BDZ receptors
From the text: 2) Inhibition of the binding to benzodiazepine receptors
The interest of the previous experimentation depends on the results obtained in this experimentation: as a compound of the invention has a benzodiazepine like structure, it is important to check whether the specific benzodiazepine activity would not appear at the dose where platelet aggregation was inhibited.
Therefore, this experimentation has been conducted according to the method of MOHLER H. and RICHARD J. G. Agonist and antagonist benzodiazepine receptor interaction in vitro, Nature, vol. 294, 763-765, 1981.
This experimentation was conducted on rat brains incubated 1 hour 30 minutes at 4° C. using ^3 H-RO-15-1788 and ^3 H-RO-5-4864 (NEN) as tracers and […] and RO-5-4864 as reference antagonists.
The results in molecular concentration are reported in the table I, on the right hand column.

[3] = Global ischemia on gerbils; format: in vivo; conditions: Meriones unguiculatus, 168 h, carotides clamped 10 minutes, hippocampes one week later, 3H-PK 11195, percentage of protection compared to control
Protocol: 3) Global ischemia on gerbils For this test, males gerbils were anaesthetized with brietal at the doses of 35 mg/kg IP; thereafter, both carotides were clamped for 10 minutes, then the clamping was released. Treated animals received each 10 mg/kg of the compounds of one of the examples. One week later, the animals were killed and both hippocampes were taken, weighed and frozen at -80° C. After crushing with 1 ml of TRIS-HCl pH 7.4 for 30 seconds, aliquots of each 50 μl of this preparation were incubed in each 1 ml of TRIS-HCl buffer containing ^3 H-PK 11195 at 2 nM (90 Ci/mmole, NENE, Germany) for 1 hour at 25° C. For each preparation, 3 determinations were made. The density of omega 3 sites (marked by the specific ^3 H-PK 11195 marker) are expressed in f-moles of PK 11195/mg of fresh tissues and converted in percentage of protection compared to control.

Compound: Cc1nnc2n1-c1sc3c(c1C(c1ccccc1Cl)=NC2)CCN(C(=O)CSC(C)C)C3 [Example 1, 6-(2-chlorophenyl)-9-(isopropylthiomethylcarbonyl)-7,8,9,10-tetrahydro-1-methyl-4H-pyrido [4',3':4,5] thieno [3,2-f] 1,2,4-triazolo [4,3-a] 1,4-diazepine]
- IC50 [1]: 25.3 nM
- IC50 [2]: 6700 nM
- inhibition in vivo at 10 mg/kg [3]: 54.2%

Compound: Cc1nnc2n1-c1sc3c(c1C(c1ccccc1Cl)=NC2)CCN(C(=S)CSC(C)C)C3 [Example 2, 6-(2-chlorophenyl)-9-(isopropylthiomethyl-thiocarbonyl)-7,8,9,10-tetrahydro-1-methyl-4H-pyrido [4',3':4,5] thieno [3,2-f] 1,2,4-triazolo [4,3-a] 1,4-diazepine]
- IC50 [1]: 28.1 nM
- IC50 [2]: 48200 nM
- inhibition in vivo at 10 mg/kg [3]: 36.3%

Compound: Cc1nnc2n1-c1sc3c(c1C(c1ccccc1Cl)=NC2)CCN(C(=O)CSC(C)(C)C)C3 [Example 3, 6-(2-chlorophenyl)-9-(t.butylthiomethyl-carbonyl)-7,8,9, 10-tetrahydro-1-methyl-4H-pyrido [4',3':4,5] thieno [3,2-f] 1,2,4-triazolo[4,3-a] 1,4-diazepine]
- IC50 [1]: 16.8 nM
- IC50 [2]: 2300 nM
- inhibition in vivo at 10 mg/kg [3]: 34.3%

Compound: Cc1nnc2n1-c1sc3c(c1C(c1ccccc1Cl)=NC2)CCN(C(=S)CSC(C)(C)C)C3 [Example 4, 6-(2-chlorophenyl)-9-(t.butylthiomethyl-thiocarbonyl)-7,8,9, 10-tetrahydro-1-methyl-4H-pyrido [4',3':4,5] thieno [3,2-f] 1,2,4-triazolo[4,3-a] 1,4-diazepine]
- IC50 [1]: 497 nM
- IC50 [2]: 1550 nM
- inhibition in vivo at 10 mg/kg [3]: 38.1%

Compound: CCCCCCCCCCCCCCCCSCC(=O)N1CCc2c(sc3c2C(c2ccccc2Cl)=NCc2nnc(C)n2-3)C1 [Example 5, 6-(2-chlorophenyl)-9-(hexadecylthiomethyl-carbonyl)-7,8,9, 10-tetrahydro-1-methyl-4H-pyrido [4',3':4,5] thieno [3,2-f] 1,2,4-triazolo[4,3-a] 1,4-diazepine]
- IC50 [1]: 7.43 nM
- IC50 [2]: 121 nM
- inhibition in vivo at 10 mg/kg [3]: 29.4%

Compound: CCCCCCCCCCCCCCCCSCC(=S)N1CCc2c(sc3c2C(c2ccccc2Cl)=NCc2nnc(C)n2-3)C1 [Example 6, 6-(2-chlorophenyl)-9-(hexadecylthiomethyl-thiocarbonyl); 7,8,9, 10-tetrahydro-1-methyl-4H-pyrido [4',3':4,5] thieno [3,2-f] 1,2,4-triazolo[4,3-a] 1,4-diazepine]
- IC50 [1]: 9.46 nM
- IC50 [2]: 910 nM
- inhibition in vivo at 10 mg/kg [3]: 27.8%

Compound: Cc1nnc2n1-c1sc3c(c1C(c1ccccc1Cl)=NC2)CCN(C(=O)CSc1ccccc1)C3 [Example 7, 6-(2-chlorophenyl)-9-(phenyl-thiomethyl-carbonyl)-7,8,9, 10-tetrahydro-1-methyl-4H-pyrido [4',3':4,5] thieno [3,2-f] 1,2,4-triazolo[4,3-a] 1,4-diazepine]
- IC50 [1]: 511 nM
- IC50 [2]: 2100 nM
- inhibition in vivo at 10 mg/kg [3]: 14.8%

Compound: Cc1nnc2n1-c1sc3c(c1C(c1ccccc1Cl)=NC2)CCN(C(=S)CSc1ccccc1)C3 [Example 8, 6-(2-chorophenyl)-9-(phenyl-thiomethyl-thiocarbonyl)-7,8,9, 10-tetrahydro-1-methyl-4H-pyrido [4',3':4,5] thieno [3,2-f] 1,2,4-triazolo[4,3-a] 1,4-diazepine]
- IC50 [1]: 10.5 nM
- IC50 [2]: 7330 nM
- inhibition in vivo at 10 mg/kg [3]: 26.2%

Compound: COc1ccc(SCC(=O)N2CCc3c(sc4c3C(c3ccccc3Cl)=NCc3nnc(C)n3-4)C2)cc1 [Example 9, 6-(2-chlorophenyl)-9-(4-methoxyphenylthiomethyl-carbonyl)-7,8,9, 10-tetrahydro-1-methyl-4H-pyrido [4',3':4,5] thieno [3,2-f] 1,2,4-triazolo[4,3-a] 1,4-diazepine]
- IC50 [1]: 33.7 nM
- IC50 [2]: 2700 nM
- inhibition in vivo at 10 mg/kg [3]: 31.2%

Compound: COc1ccc(SCC(=S)N2CCc3c(sc4c3C(c3ccccc3Cl)=NCc3nnc(C)n3-4)C2)cc1 [Example 10, 6-(2-chlorophenyl)-9-(4-methoxyphenylthiomethyl-thiocarbonyl)-7,8,9, 10-tetrahydro-1-methyl-4H-pyrido [4',3':4,5] thieno [3,2-f] 1,2,4-triazolo[4,3-a] 1,4-diazepine]
- IC50 [1]: 171 nM
- IC50 [2]: 66000 nM
- inhibition in vivo at 10 mg/kg [3]: 10.3%

Compound: COc1ccc(SCC(=O)N2CCc3c(sc4c3C(c3ccccc3Cl)=NCc3nnc(C)n3-4)C2)cc1OC [Example 11, 6-(2-chlorophenyl)-9-(3,4-dimethoxyphenylthiomethyl-carbonyl)-7,8,9, 10-tetrahydro-1-methyl-4H-pyrido [4',3':4,5] thieno [3,2-f] 1,2,4-triazolo[4,3-a] 1,4-diazepine]
- IC50 [1]: 26.4 nM
- IC50 [2]: 1400 nM
- inhibition in vivo at 10 mg/kg [3]: 46.5%

Compound: COc1ccc(SCC(=S)N2CCc3c(sc4c3C(c3ccccc3Cl)=NCc3nnc(C)n3-4)C2)cc1OC [Example 12, 6-(2-chlorophenyl)-9-(3,4-dimethoxyphenylthiomethyl-thiocarbonyl)-7,8,9, 10-tetrahydro-1-methyl-4H-pyrido [4',3':4,5] thieno [3,2-f] 1,2,4-triazolo [4,3-a] 1,4-diazepine]
- IC50 [1]: 31.4 nM
- IC50 [2]: 870 nM
- inhibition in vivo at 10 mg/kg [3]: 34.1%

Compound: COc1cc(SCC(=O)N2CCc3c(sc4c3C(c3ccccc3Cl)=NCc3nnc(C)n3-4)C2)cc(OC)c1OC [Example 13, 6-(2-chlorophenyl)-9-(3,4,5-trimethoxyphenylthiomethylcarbonyl)-7,8,9, 10-tetrahydro-1-methyl-4H-pyrido [4',3':4,5] thieno [3,2-f] 1,2,4-triazolo[4,3-a] 1,4-diazepine]
- IC50 [1]: 18.5 nM
- IC50 [2]: 55000 nM
- inhibition in vivo at 10 mg/kg [3]: 32.1%

Compound: COc1cc(SCC(=S)N2CCc3c(sc4c3C(c3ccccc3Cl)=NCc3nnc(C)n3-4)C2)cc(OC)c1OC [Example 14, 6-(2-chlorophenyl)-9-(3,4,5-trimethoxyphenylthiomethyl-thiocarbonyl)-7,8,9, 10-tetrahydro-1-methyl-4H-pyrido [4',3':4,5] thieno [3,2-f] 1,2,4-triazolo [4,3-a] 1,4-diazepine]
- IC50 [1]: 9.22 nM
- IC50 [2]: 1500 nM
- inhibition in vivo at 10 mg/kg [3]: 19.7%

Compound: COc1ccc(SCC(=O)N2CCc3c(sc4c3C(c3ccccc3Cl)=NCc3nnc(C)n3-4)C2)c(OC)c1OC [Example 15, 6-(2-chlorophenyl)-9-(2,3,4-trimethoxyphenylthiomethyl-carbonyl)-7,8,9, 10-tetrahydro-1-methyl-4H-pyrido [4',3':4,5] thieno [3,2-f] 1,2,4-triazolo[4,3-a] 1,4-diazepine]
- IC50 [1]: 120 nM
- IC50 [2]: 3600 nM
- inhibition in vivo at 10 mg/kg [3]: 35.8%

Compound: COc1ccc(SCC(=S)N2CCc3c(sc4c3C(c3ccccc3Cl)=NCc3nnc(C)n3-4)C2)c(OC)c1OC [Example 16, 6-(2-chlorophenyl)-9-(2,3,4-trimethoxyphenylthiomethylthiocarbonyl)-7,8,9, 10-tetrahydro-1-methyl-4H-pyrido [4',3':4,5] thieno [3,2-f] 1,2,4-triazolo [4,3-a] 1,4-diazepine]
- IC50 [1]: 53.5 nM
- IC50 [2]: 600 nM
- inhibition in vivo at 10 mg/kg [3]: 29.3%

Compound: Cc1nnc2n1-c1sc3c(c1C(c1ccccc1Cl)=NC2)CCN(C(=O)CSc1ccc(C(C)(C)C)cc1)C3 [Example 17, 6-(2-chlorophenyl)-9-(4-t.butylphenylthiomethyl-carbonyl)-7,8,9, 10-tetrahydro-1-methyl-4H-pyrido [4',3':4,5] thieno [3,2-f] 1,2,4-triazolo[4,3-a] 1,4-diazepine]
- IC50 [1]: 8.75 nM
- IC50 [2]: 4700 nM
- inhibition in vivo at 10 mg/kg [3]: 11.1%

Compound: Cc1nnc2n1-c1sc3c(c1C(c1ccccc1Cl)=NC2)CCN(C(=S)CSc1ccc(C(C)(C)C)cc1)C3 [Example 18, 6-(2-chlorophenyl)-9-(4-t.butylphenylthiomethyl-thiocarbonyl)-7,8,9, 10-tetrahydro-1-methyl-4H-pyrido [4',3':4,5] thieno [3,2-f] 1,2,4-triazolo[4,3-a] 1,4-diazepine]
- IC50 [1]: 23 nM
- IC50 [2]: 44100 nM
- inhibition in vivo at 10 mg/kg [3]: 12.6%
